Consider 9 molecules from patent publication US20240400579A1, “SPIROCYCLIC MODULATORS OF CHOLESTEROL BIOSYNTHESIS AND THEIR USE FOR PROMOTING REMYELINATION” (GENENTECH, INC., priority 2021, published 2024).

Each structure is given as a SMILES string. pEC50, pKi: −log10 of the molar value. Like-named read-outs stand apart in the source and are kept apart here.

The target in assay [1] is human emopamil binding protein and human 7-dehydrocholesterol reductase co-expressing cell membrane (Homo sapiens (Human), UniProt Q15125). The experiment in a line: hEBP-DHCR7 radioligand filtration binding assay with [3H]-Compound 118A*. The conditions noted are these: radioligand [3H]-Compound 118A*; HEK293 membrane co-expressing hEBP and DHCR7. In short, it runs like this:
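HEK293 membranes transiently co-expressing hEBP and hDHCR7 (10 μg/well) were incubated with [3H]-Compound 118A* (added at 25 nM) and compounds (8 doses, final 0.06–5000 nM, n=2) for 3 h at 22 °C. Bound radioactivity was read after PEI-treated GF/B filtration. IC50 came from a Hill fit of % inhibition and was converted to Ki.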

The test system of assay [2] is zymostenol accumulation in EpiSC-derived OPCs (EBP). Kind of assay: GC/MS-based sterol profiling, zymostenol accumulation. It counts as cell-based, mouse. The conditions noted are these: 8 doses from 0.15 nM to 333 nM, read-out: mZymo GCMS EC50. In a few lines:
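EpiSC-derived mouse OPCs plated at 100,000 cells/well in N2B27 without growth factors and treated 24 h. Sterols extracted, silylated with BSTFA and measured by GC/MS (EI, full scan), quantified against cholesterol-d7. Zymostenol normalized to levels after 24 h with 100 nM positive control reference.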

The target in a further assay is human EBP (Homo sapiens (Human), UniProt Q15125). Kind of assay: Competition binding assay (SPA) to determine compound affinity to EBP. The conditions noted are these: radioligand [3H]-Ifenprodil 10 nM; Ki=IC50/(1+[L]/Kd); HEK293 membrane; read-out: hEBP SPA Ki. On the procedure:
Membrane preparation: To examine compound binding affinity to EBP, human EBP was overexpressed in human embryonic kidney 293 cells. Cell pellet was lysed in 10 times weight binding buffer (50 mM Tris, 5 mM MgCl2, 0.1 mM EDTA, 1× protease inhibitor cocktail, pH 7.5) on ice by using a dounce homogenizer. The solution was centrifuged at 25,000 g for 50 min at 4° C. The membrane pellet was re-suspended in binding buffer and run through a 25 5/8 gauge needle. After checking the concentration by Bradford assay, the whole cell membrane solution was adjusted to 20 mg/mL and stored at −80° C.
This binding solution was centrifuged at 400 g for 5 minutes to collect the bead/membrane mixture. After re-suspending the pellet in binding buffer at the same calculated volume with 0.01% BSA (Sigma A1933), the bead/membrane mixture was added in 384-well low-binding surface plate (PerkinElmer Cat #6057480) at 25 i/well. Radioligand at different concentrations with and without the non-radio-labeled same ligand 5 uM (for nonspecific and total signal, respectively) was added to bring final volume to 50 i/well with DMSO concentration at 0.1%. At equilibrium (3 hours after ligand addition), radiometric signal CPM was counted by using a Microbeta2 microplate counter (Perkinelmer).
Competition binding assay to determine compound affinity: The same conditions of the radioligand Kd study were used for compound single dose percentage inhibition and equilibrium dissociation constant Ki examinations, except 50 nL compound DMSO stock was pre-added in 384-well low-binding surface plate (PerkinElmer Cat #6057480) by Echo 550 (Labcyte) to reach the final concentration for single dose test at 1 uM, and dose response test from 0.06 nM to 5 uM (8 dose, 5 times dilution). A pre-incubated bead/membrane mixture was added in compound plate at 0.3 mg beads and […] membrane per well. […] At equilibrium (3 hours after ligand addition), radiometric signal was counted as described above. The percentage inhibition of compound at each testing concentration was calculated by normalizing each condition's CPM readout to full block (5 uM non-radiolabeled ligand) and non-block (DMSO) control conditions. Compound binding inhibition IC50 was determined by nonlinear regression fitting of percentage inhibition plot against compound concentration. Compound Ki was calculated from the equation Ki=IC50/(1+[L]/Kd), which [L] was radioligand concentration used in assay. All tests had N bigger or equal to 2.

The test system of the next assay is EpiSC-derived OPCs. Kind of assay: In vitro phenotypic screening of OPCs, MBP high-content imaging. The conditions noted are these: percentage of MBP+ oligodendrocytes; 3 days; 0.5 nM to 1000 nM; read-out: mOPC EC50. In kind it is cell-based, mouse. In a few lines: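 Mouse EpiSC-derived OPCs seeded without growth factors and exposed 3 days at 37° C. to 8-point doses, 1000 nM to 0.5 nM final. Fixed cells stained for MBP and DAPI; high-content imaging gave percentage MBP+ oligodendrocytes, with EC50 from Hill-equation fit.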

human emopamil binding protein and human 7-dehydrocholesterol reductase co-expressing cell membrane, sequence (Q15125 whole entry): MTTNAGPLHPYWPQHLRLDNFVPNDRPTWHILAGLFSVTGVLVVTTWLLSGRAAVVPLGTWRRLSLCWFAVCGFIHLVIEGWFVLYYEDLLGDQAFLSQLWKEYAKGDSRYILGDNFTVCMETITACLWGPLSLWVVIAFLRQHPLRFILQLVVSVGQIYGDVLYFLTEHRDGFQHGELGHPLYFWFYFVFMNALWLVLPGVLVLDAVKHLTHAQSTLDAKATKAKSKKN
human EBP, sequence (Q15125 whole entry): as above

As for `CC(Cc1cc(C(F)(F)F)nn1C(C)C)CN1CCC2(C1)CS(=O)(=O)C2` (racemic) [Example 155, (S)-6-(3-(1-Isopropyl-3-(trifluoromethyl)-1H-pyrazol-5-yl)-2-methylpropyl)-2-thia-6-azaspiro[3.4]octane 2,2-dioxide and (R)-6-(3-(1-isopropyl-3-(trifluoromethyl)-1H-pyrazol-5-yl)-2-methylpropyl)-2-thia-6-azaspiro[3.4]octane 2,2-dioxide], the negative-log Ki (pKi) was 6.73 in assay [1] and 7.85 at human EBP. Moreover, in assay [2] (Mus musculus, 24 h), the pEC50 was 8.52.
For the molecule `CC(C)(CN1CCC2(C1)CS(=O)(=O)C2)Oc1ccc(F)cc1` [Example 132, 6-(2-(4-Fluorophenoxy)-2-methylpropyl)-2-thia-6-azaspiro[3.4]octane 2,2-dioxide], the pKi in assay [1] is 7.83; on human EBP, 7.59. The pEC50 in assay [2] (Mus musculus, 24 h) is 8.14.
In the same order, the values of `C[C@H](Cc1ccc(C(F)F)cc1)CN1CCC2(C1)CS(=O)(=O)C2` (single isomer, unassigned) [Compound 128B] are 7.59, 7.35 and 8.32.
`O=S1(=O)CC2(CCN(CC(F)Cc3ccc(C(F)(F)F)cc3)C2)C1` (racemic) [Example 142, (S)-6-(2-Fluoro-3-(4-(trifluoromethyl)phenyl)propyl)-2-thia-6-azaspiro[3.4]octane 2,2-dioxide and (R)-6-(2-fluoro-3-(4-(trifluoromethyl)phenyl)propyl)-2-thia-6-azaspiro[3.4]octane 2,2-dioxide]: the pKi in assay [1] was 7.79; on human EBP, 7.46. Further, in assay [2] (Mus musculus, 24 h), the negative logarithm of the EC50 (pEC50) is 7.85.
The matching figures for `CC(C)(CN1CCC2(C1)CS(=O)(=O)C2)Oc1ccccc1F` [Example 133, 6-(2-(2-Fluorophenoxy)-2-methylpropyl)-2-thia-6-azaspiro[3.4]octane 2,2-dioxide]: 7.06, 7.05 and 7.14.
In the same order, the values of `C[C@@H](Cc1cnn(CC(F)(F)F)c1)CN1CCC2(C1)CS(=O)(=O)C2` (single isomer, unassigned) [Compound 154A] are 6.75, 7.23 and 6.70.
In the same order, the values of `C[C@H](Cc1cnn(CC(F)(F)F)c1)CN1CCC2(C1)CS(=O)(=O)C2` (single isomer, unassigned) [Compound 154B] are 6.84, 7.28 and 6.60.
For `C[C@H](Cc1cnc(C(F)(F)F)nc1)CN1CCC2(C1)CS(=O)(=O)C2` (single isomer, unassigned) [Compound 145B], the results for the negative-log Ki (pKi) (in assay [1]; at human EBP) were 6.97 and 7.00, respectively. Also, in assay [2] (Mus musculus, 24 h), the negative logarithm of the EC50 (pEC50) is 7.26.
With `C[C@H](Cc1ccc([C@H]2CC[C@](O)(C(F)(F)F)CC2)c(Cl)c1)CN1CCC2(C1)CS(=O)(=O)C2` (stereo in doubt) [116B*, 6-((S)-3-(3-Chloro-4-((1s,4S)-4-hydroxy-4-(trifluoromethyl)cyclohexyl)phenyl)-2-methylpropyl)-2-thia-6-azaspiro[3.4]octane 2,2-dioxide, and 6-((R)-3-(3-chloro-4-((1r,4R)-4-hydroxy-4-(trifluoromethyl)cyclohexyl)phenyl)-2-methylpropyl)-2-thia-6-azaspiro[3.4]octane 2,2-dioxide], in assay [1], the pKi is 8.03. Also, the pEC50 in assay [2] (24 hours) is 9.09; in the assay on EpiSC-derived OPCs it was 8.70.
